# In patent US12667546B2, “Methods for manipulating cell state transitions in cancer” (AGENCY FOR SCIENCE, TECHNOLOGY AND RESEARCH, priority 2018, dated 2026):
# Where “and” joins values, the source holds several entries; their conditions need not be identical. Equal values may be shown once. Where a name gives a salt, the structure may show the parent alone. Read-outs that look alike come from different tables or passages of the source.
# How the values were obtained:
# [1] = test system: NAMEC8-SERPINE1prom-Luc cells; assay: Renilla-luciferase (constitutive CMV promoter) readout for cell numbers; assay type: cell-based, human; conditions: for viability at 10 µM: Homo sapiens, 72 h, read-out: % Avr Renilla from DMSO
# [2] = test system: SERPINE1prom-Luc reporter in NAMEC8 cells; assay: Dual-Glo luciferase assay of SERPINE1prom-Luc reporter (FF/Ren); assay type: cell-based, human; conditions: for activity at 10 µM: Homo sapiens, 72 h, read-out: Avr FF/Renilla from DMSO; for dose-dependent change of SERPINE1 promoter activity: dose response (metabolic hits 10 nM to 2 μM; epigenetic hits six concentrations)
# Source text: pGreenFire1-mCMV was cut using ClaI and SpeI and gel purified. Promoter sequences of genes Zeb1, Serpine1, CDH1, CD24, CD44, CD166 were amplified from human genomic DNA with pre-designed primers containing ClaI and SpeI restriction cut sites using AccuPrime Taq DNA Polymerase (Thermo Fisher Scientific). PCR products were then digested with restriction enzymes and gel-purified. Vector was ligated with PCR insert using Quick Ligase (Fermentas) and transformed into Stb12 competent cells. Colonies were picked and inoculated into TB media with ampicillin. Plasmids were then isolated using a plasmid miniprep kit (Qiagen) and sent for sequencing (1 stBASE Laboratories). After verifying the plasmid sequence, transfection into HEK293 cells was carried out to generate lentivirus. Transfection was carried out using FuGENE 6 (Promega). Viral supernatant was harvested at 24 h and 48 h. NAMEC8 cells were then infected twice with virus using polybrene ([…]) and checked for good transduction efficiency using Dual-Glo Luciferase System (Promega).
# Stock plates of compound libraries were kindly prepared by GIS CHiP facility at 1 mM concentration in DMSO. NAMEC8-SERPINE1prom-Luc cells were seeded into 384 well plates at a density of 700 cells/well in a total volume of 50 μl, using an automated dispensing system (BioTek). 0.5 μl of compounds were then added to the wells the following day using a robotic pin transfer with a Bravo workstation (Agilent Technologies). Cells were then grown for 3 days and promoter-luciferase activity was measured using the Dual-Glo Luciferase System (Promega).
# Assay was carried out according to manufacturer's instructions. To measure luciferase activity in 384 well plates, media was first removed from the plate. Firefly luciferase activity was determined by adding 30 μl Dual-Glo Luciferase substrate (Promega) to the wells and incubated for 10 min before measuring luminescence using a TECAN M1000 Pro plate reader. 15 μl Dual-Glo Stop & Glo substrate was then added to the wells, incubated for 10 min and measuring luminescence on the plate reader to determine Renilla luciferase activity. Promoter luciferase activity is then calculated by taking Firefly luciferase over Renilla luciferase.
# [3] = primary screen, Renilla as readout for cell numbers, relative to DMSO
# [4] = primary screen, NAMEC8-SERPINE1prom-Luc cells grown 3 days with compound, relative to DMSO
# [5] = primary screen, […], relative to DMSO
Compound,"viability at 10 µM [1, 3]","activity at 10 µM [2, 4]","% Avr Renilla from DMSO [1, 3]","Avr FF/Renilla from DMSO [2, 4]",also measured
"CCCn1c(=O)c2[nH]c(-c3ccc(S(=O)(=O)O)cc3)nc2n(CCC)c1=O [1,3-Dipropyl-8-p-sulfophenylxanthine]",103%,61%,,,
O=c1[nH]c(=O)n([C@H]2C[C@H](O)[C@@H](CO)O2)cc1Br [5-Bromo-2′-deoxyuridine],65.7%,67%,,,
CCCCC[C@H](O)/C=C/[C@H]1[C@H](O)CC(=O)[C@@H]1CC(=O)CCCCC(=O)O [6-keto Prostaglandin E1],,,79.67%,0.55,
"CCCCC/C=C\C=C1\C(=O)C[C@H](O)[C@@H]1C/C=C\CCCC(=O)O [15-deoxy-_12,14-Prostaglandin D2]",,,68.09%,0.57,
"CCCCC(C)(C)[C@H](O)/C=C/[C@H]1C(=O)C[C@H](O)[C@@H]1C/C=C\CCCC(=O)O [16,16-dimethyl Prostaglandin D2]",,,52.62%,0.48,
O=C(O)CCC/C=C\C[C@H]1C(=O)C=C[C@@H]1/C=C/[C@@H](O)COc1ccccc1 [16-phenoxy tetranor Prostaglandin A2],,,82.64%,0.59,
Cc1cccc(-c2nn(C(=S)Nc3ccccc3)cc2-c2ccnc3ccccc23)n1 [A83-01],,,,,downregulation of SERPINE1prom-Luc ([2]; positive control treatment): at least 50%
CCCCCCCCc1ccc(-c2ccc(C(=O)O)cc2)cc1 [AC-55649],,,106.55%,0.59,
N#C/C(=C\c1ccc(O)c(O)c1)C(=O)NCc1ccccc1 [AG-490],,,64.03%,0.47,
O=C(Nc1cccc(C(F)(F)F)c1)Nc1cc(S(=O)(=O)NC2CC2)ccc1-c1ccsc1 [AGI-6780],,,,,dose-dependent change of SERPINE1 promoter activity [2]: dose dependent decrease in SERPINE1 promoter activity
"CN(Cc1cnc2nc(N)nc(N)c2n1)c1ccc(C(=O)N[C@@H](CCC(=O)O)C(=O)O)cc1 [Abitrexate (Methotrexate), Methotrexate]",55.6%,56%,,,
C=CCc1ccccc1OCC(O)CNC(C)C (centres unmarked) [Alprenolol hydrochloride],90.2%,80%,,,
CCCCc1oc2ccccc2c1C(=O)c1cc(I)c(OCCN(CC)CC)c(I)c1 [Amiodarone hydrochloride],86.9%,59%,,,
S=C(NCc1ccc2c(c1)OCO2)N1CCN(c2ncnc3c2oc2ccccc23)CC1 [Amuvatinib (MP-470)],,,140.20% and 213.43%,0.37 and 0.23,
CN1CCc2cccc3c2[C@H]1Cc1ccc(O)c(O)c1-3 [Apomorphine hydrochloride hemihydrate],85.1%,84%,,,
Cc1cc(Nc2ncnc3ccc(NC4=NC(C)(C)CO4)cc23)ccc1Oc1ccn2ncnc2c1 [Arry-380],67.3%,73%,,,
C[N+]1(C)[C@@H]2CC[C@H]1C[C@@H](OC(=O)C(CO)c1ccccc1)C2 (some centres unmarked) [Atropine methyl nitrate],103%,68%,,,
CCCCCCCCCCCCC/C=C/[C@@H](O)[C@H](CO)NC(=O)CCCCCCC [C-8 Ceramide],,,70.74%,0.54,
CS(=O)(=O)N1CCc2c(-c3cnc(N)nc3)nc(N3CCOCC3)nc21 [CH5132799],50.6%,71%,,,
CC1(C(=O)O)C2CCC(O2)C1(C)C(=O)O (centres unmarked) [Cantharidic Acid],74.6%,,,,"activity at 10 µM [2, 5]: 40%"
NC(=O)c1ccc(-c2nc(-c3ccc4c(c3)OCCO4)c(-c3ccccn3)[nH]2)cc1 [D 4476],,,53.26%,0.57,
COc1cccc(Nc2c(C(N)=O)cnc3c(C)cc(S(=O)(=O)c4cccc(C(=O)N(C)C)c4)cc23)c1 [GSK256066],,,,,dose-dependent change of SERPINE1 promoter activity [2]: dose dependent decrease in SERPINE1 promoter activity
CC1=C(/C=C/C(C)=C/C=C/C(C)=C\C(=O)O)C(C)(C)CCC1 [Isotretinoin],84.1%,37%,,,

Compound,"viability at 10 µM [1, 3]","activity at 10 µM [2, 4]","% Avr Renilla from DMSO [1, 3]","Avr FF/Renilla from DMSO [2, 4]",also measured
CN([C@@H](Cc1ccc(OS(=O)(=O)c2cccc3cnccc23)cc1)C(=O)N1CCN(c2ccccc2)CC1)S(=O)(=O)c1cccc2cnccc12 [KN-62],,,67.80%,0.43,
COc1ccc(S(=O)(=O)N(CCO)c2ccccc2CN(C)C/C=C/c2ccc(Cl)cc2)cc1 [KN-93],,,54.45%,0.59,
COc1ccc(Br)cc1S(=O)(=O)NC(=O)/C=C/c1ccccc1Cc1ccc2ccccc2c1 [L-798106],,,68.99%,0.13,
N[C@@H](CC(=O)O)C(=O)O [L-Aspartic acid],99.3%,71%,,,
"CC1(C)CNc2cc(NC(=O)c3cccnc3NCc3ccncc3)ccc21 [Motesanib Diphosphate (AMG-706), Motesanib Diphosphate]",50.9%,70%,,,
CCN(CC)CCCCNc1ncc2cc(-c3c(Cl)cccc3Cl)c(NC(=O)NC(C)(C)C)nc2n1 [PD-161570],,,74.13%,0.39,
CNC(=O)c1ccc(C)c(-n2c(C)cc(OCc3ccc(F)cc3F)c(Br)c2=O)c1 [PH-797804],53%,67%,,,
CC(=O)Nc1nc(C)c(-c2ccc(Cl)c(S(=O)(=O)NCCO)c2)s1 [PIK-93],,,75.51%,,"Avr FF/Renilla from DMSO [2, 5]: 0.72"
CCCCC[C@H](O)/C=C/[C@H]1C(=O)C[C@H](O)[C@@H]1C/C=C\CCCC(=O)NCCO [Prostaglandin D2 Ethanolamide],,,65.62%,0.55,
CCCCCC(O)/C=C/C1C(=O)CC(O)C1C/C=C\CCCC(=O)OCC(O)CO (centres unmarked) [Prostaglandin D2-1-glyceryl ester],,,58.41%,0.59,
CC(=O)O[C@@]12C[C@@H](C)[C@@]3(O)[C@@H](C=C(CO)C[C@]4(O)C(=O)C(C)=C[C@@H]34)[C@@H]1C2(C)C [Prostratin],146%,55%,,,
O=C(Nc1ccc2[nH]ncc2c1)C1CCC1 [Rhodblock 6],,,89.97%,0.87,
"CC[C@H](CO)Nc1nc(NCc2ccccc2)c2ncn(C(C)C)c2n1 [Roscovitine (Seliciclib, CYC202), Roscovitine]",53.7%,,,,activity at 10 µM [2]: 63%
CCSC(=N)Nc1ccc(C(F)(F)F)cc1 [S-ethyl N-[4-(trifluoromethyl)phenyl] Isothiourea (hydrochloride)],76.8%,59%,,,
Cn1cc(C2=C(c3ccc(Cl)cc3Cl)C(=O)NC2=O)c2ccccc21 [SB 216763],,,107.55%,0.56,
NC(=O)c1ccc(-c2nc(-c3ccccn3)c(-c3ccc4c(c3)OCO4)[nH]2)cc1 [SB 431542],,,51.90%,0.50,
Cc1cccc(-c2[nH]c(C(C)(C)C)nc2-c2ccc3nccnc3c2)n1 [SB-525334],,,51.73%,0.37,
O=[N+]([O-])c1ccc(CNc2nc(NCc3cccc(C(F)(F)F)c3)nc3nc[nH]c23)cc1 [TNP],,,,,% Avr Renilla from DMSO [1]: 80.47%; Avr FF/Renilla from DMSO [2]: 0.88
CCOC(=O)c1ccc(C#Cc2ccc3c(c2)C(C)(C)CCS3)nc1 [Tazarotene],67%,59%,,,
CCO.N#CC(=C(/N)Sc1ccccc1N)/C(C#N)=C(\N)Sc1ccccc1N [U0126-EtOH],,,76.21%,0.62,
N#CC(=C(/N)Sc1ccccc1N)/C(C#N)=C(\N)Sc1ccccc1N [U0126],,,,,viability at 10 µM [1]: 102%; activity at 10 µM [2]: 45%
CCCCC/C=C\C/C=C\C/C=C\C/C=C\CCCC(=O)NCc1ccoc1 [UCM707],,,88.05%,,"Avr FF/Renilla from DMSO [2, 5]: 0.57"
CAY10587,,,72.88%,0.56,
